The values that follow come from patent US20050197350A1, “Novel quinoline, tetrahydroquinazoline, and pyrimidine derivatives and methods of treatment related to the use thereof” (TAISHO PHARMACEUTICAL CO., LTD., priority 2003, published 2005).

In the test the test system is MCH receptors. Nature of the test: MCH receptor activity class (method not given). Conditions: class by percent of control at 10^-7 M or IC50.

As for `Cc1cc(CN[C@H]2CC[C@@H](Nc3nc4c(c(N(C)C)n3)CCCC4)CC2)cc(C)c1O` [compound 1344], the class is reported as 3 (Class 3 The value of percent of control at 10^−7 M was more than 60% or the value of IC50 was more than 200 nM.).

Regarding `COc1cccc(CN[C@H]2CC[C@@H](Nc3nc4c(c(N(C)C)n3)CCCC4)CC2)c1` [compound 1345], the class is 3 (Class 3 The value of percent of control at 10^−7 M was more than 60% or the value of IC50 was more than 200 nM.).

On to `CN(C)c1nc(N[C@H]2CC[C@@H](NCc3ccc(F)c(Br)c3)CC2)nc2c1CCCC2` [compound 1346], for which the class was 3 (Class 3 The value of percent of control at 10^−7 M was more than 60% or the value of IC50 was more than 200 nM.).

As for `CC(CCN[C@H]1CC[C@@H](Nc2nc3c(c(N(C)C)n2)CCCC3)CC1)c1ccccc1` (stereo partly shown) [compound 1347], the class is 3 (Class 3 The value of percent of control at 10^−7 M was more than 60% or the value of IC50 was more than 200 nM.).

`Cc1ccc2occ(CN[C@H]3CC[C@@H](Nc4nc5c(c(N(C)C)n4)CCCC5)CC3)c(=O)c2c1` [compound 1348]: the class is listed as 3 (Class 3 The value of percent of control at 10^−7 M was more than 60% or the value of IC50 was more than 200 nM.).

As to `Cc1cc2occ(CN[C@H]3CC[C@@H](Nc4nc5c(c(N(C)C)n4)CCCC5)CC3)c(=O)c2cc1Cl` [compound 1349], the class is given as 3 (Class 3 The value of percent of control at 10^−7 M was more than 60% or the value of IC50 was more than 200 nM.).

Consider `Cc1cc(C)c2occ(CN[C@H]3CC[C@@H](Nc4nc5c(c(N(C)C)n4)CCCC5)CC3)c(=O)c2c1` [compound 1350], for which the class is 2 (Class 2: The value of percent of control at 10^−7 M was from 40% to 60% or the value of IC′50 was from 50 nM to 200 nM.).

As to `Cc1cc(CN[C@H]2CC[C@@H](Nc3nc4c(c(N(C)C)n3)CCCC4)CC2)c(C)n1-c1ccccc1` [compound 1351], the class is recorded as 3 (Class 3 The value of percent of control at 10^−7 M was more than 60% or the value of IC50 was more than 200 nM.).

As for `CCCCC/C(=C\c1ccccc1)CN[C@H]1CC[C@@H](Nc2nc3c(c(N(C)C)n2)CCCC3)CC1` [compound 1353], the class was 3 (Class 3 The value of percent of control at 10^−7 M was more than 60% or the value of IC50 was more than 200 nM.).

On to `COc1ccccc1/C=C/CN[C@H]1CC[C@@H](Nc2nc3c(c(N(C)C)n2)CCCC3)CC1` [compound 1354], for which the class was 3 (Class 3 The value of percent of control at 10^−7 M was more than 60% or the value of IC50 was more than 200 nM.).

On to `CN(C)c1nc(N[C@H]2CC[C@@H](NCc3coc4ccc(Cl)cc4c3=O)CC2)nc2c1CCCC2` [compound 1355], for which the class is on record as 3 (Class 3 The value of percent of control at 10^−7 M was more than 60% or the value of IC50 was more than 200 nM.).

Take `CN(C)c1nc(N[C@H]2CC[C@@H](NCc3cncc(-c4ccc(F)cc4)c3)CC2)nc2c1CCCC2` [compound 1356]: the class is given as 3 (Class 3 The value of percent of control at 10^−7 M was more than 60% or the value of IC50 was more than 200 nM.).

With `CCOC(=O)c1[nH]c2cc(Cl)cc(Cl)c2c1CN[C@H]1CC[C@@H](Nc2nc3c(c(N(C)C)n2)CCCC3)CC1` [compound 1357], the class is given as 1 (Class 1: The value of percent of control at 10^−7 M was less than 40% or the value of IC50 was less than 50 nM.).

Turning to `COC(=O)c1ccccc1Sc1nc2sccn2c1CN[C@H]1CC[C@@H](Nc2nc3c(c(N(C)C)n2)CCCC3)CC1` [compound 1358], the class is 3 (Class 3 The value of percent of control at 10^−7 M was more than 60% or the value of IC50 was more than 200 nM.).

With `CN(C)c1nc(N[C@H]2CC[C@@H](NCc3c[nH]nc3-c3ccc(F)cc3)CC2)nc2c1CCCC2` [compound 1359], the class is on record as 1 (Class 1: The value of percent of control at 10^−7 M was less than 40% or the value of IC50 was less than 50 nM.).

As for `CSc1ccc(CN[C@H]2CC[C@@H](Nc3nc4c(c(N(C)C)n3)CCCC4)CC2)cc1` [compound 1360], the class was 3 (Class 3 The value of percent of control at 10^−7 M was more than 60% or the value of IC50 was more than 200 nM.).

Consider `CN(C)c1nc(N[C@H]2CC[C@@H](NCc3cccc4ccccc34)CC2)nc2c1CCCC2` [compound 1361], for which the class was 3 (Class 3 The value of percent of control at 10^−7 M was more than 60% or the value of IC50 was more than 200 nM.).

Consider `COc1cc(CN[C@H]2CC[C@@H](Nc3nc4c(c(N(C)C)n3)CCCC4)CC2)ccc1O` [compound 1362], for which the class is listed as 3 (Class 3 The value of percent of control at 10^−7 M was more than 60% or the value of IC50 was more than 200 nM.).

With `CN(C)c1nc(N[C@H]2CC[C@@H](NCc3ccc(F)c(Cl)c3)CC2)nc2c1CCCC2` [compound 1363], the class was 3 (Class 3 The value of percent of control at 10^−7 M was more than 60% or the value of IC50 was more than 200 nM.).

As for `COc1cccc(OC)c1CNC[C@H]1CC[C@@H](Nc2nc3c(c(N(C)C)n2)CCCC3)CC1` [compound 1364], the class is recorded as 1 (Class 1: The value of percent of control at 10^−7 M was less than 40% or the value of IC50 was less than 50 nM.).

Turning to `CCOc1ccccc1CNC[C@H]1CC[C@@H](Nc2nc3c(c(N(C)C)n2)CCCC3)CC1` [compound 1365], the class is recorded as 2 (Class 2: The value of percent of control at 10^−7 M was from 40% to 60% or the value of IC′50 was from 50 nM to 200 nM.).

Regarding `CN(C)c1nc(N[C@H]2CC[C@@H](CNCc3c[nH]c4ccccc34)CC2)nc2c1CCCC2` [compound 1366], the class is recorded as 2 (Class 2: The value of percent of control at 10^−7 M was from 40% to 60% or the value of IC′50 was from 50 nM to 200 nM.).

As to `COc1ccc(OC)c(CNC[C@H]2CC[C@@H](Nc3nc4c(c(N(C)C)n3)CCCC4)CC2)c1` [compound 1367], the class is given as 2 (Class 2: The value of percent of control at 10^−7 M was from 40% to 60% or the value of IC′50 was from 50 nM to 200 nM.).

As to `COc1ccc(CNC[C@H]2CC[C@@H](Nc3nc4c(c(N(C)C)n3)CCCC4)CC2)c2ccccc12` [compound 1368], the class is 2 (Class 2: The value of percent of control at 10^−7 M was from 40% to 60% or the value of IC′50 was from 50 nM to 200 nM.).

Turning to `COc1ccc2[nH]cc(CNC[C@H]3CC[C@@H](Nc4nc5c(c(N(C)C)n4)CCCC5)CC3)c2c1` [compound 1369], the class is reported as 1 (Class 1: The value of percent of control at 10^−7 M was less than 40% or the value of IC50 was less than 50 nM.).

On to `COc1ccc2ccccc2c1CNC[C@H]1CC[C@@H](Nc2nc3c(c(N(C)C)n2)CCCC3)CC1` [compound 1370], for which the class is recorded as 3 (Class 3 The value of percent of control at 10^−7 M was more than 60% or the value of IC50 was more than 200 nM.).

Regarding `COc1cc(Br)cc(CNC[C@H]2CC[C@@H](Nc3nc4c(c(N(C)C)n3)CCCC4)CC2)c1O` [compound 1371], the class was 2 (Class 2: The value of percent of control at 10^−7 M was from 40% to 60% or the value of IC′50 was from 50 nM to 200 nM.).

Turning to `CN(C)c1nc(N[C@H]2CC[C@@H](CNCc3c[nH]c4ccc(Br)cc34)CC2)nc2c1CCCC2` [compound 1372], the class was 1 (Class 1: The value of percent of control at 10^−7 M was less than 40% or the value of IC50 was less than 50 nM.).

`COc1ccc(CNC[C@H]2CC[C@@H](Nc3nc4c(c(N(C)C)n3)CCCC4)CC2)c(OC)c1` [compound 1373]: the class is 3 (Class 3 The value of percent of control at 10^−7 M was more than 60% or the value of IC50 was more than 200 nM.).

As to `COc1ccc(CNC[C@H]2CC[C@@H](Nc3nc4c(c(N(C)C)n3)CCCC4)CC2)c(OC)c1OC` [compound 1374], the class is recorded as 3 (Class 3 The value of percent of control at 10^−7 M was more than 60% or the value of IC50 was more than 200 nM.).

For `COc1cc(CNC[C@H]2CC[C@@H](Nc3nc4c(c(N(C)C)n3)CCCC4)CC2)cc(OC)c1O` [compound 1375], the class is reported as 3 (Class 3 The value of percent of control at 10^−7 M was more than 60% or the value of IC50 was more than 200 nM.).

For `CCOc1cc(CNC[C@H]2CC[C@@H](Nc3nc4c(c(N(C)C)n3)CCCC4)CC2)ccc1OC` [compound 1376], the class is given as 1 (Class 1: The value of percent of control at 10^−7 M was less than 40% or the value of IC50 was less than 50 nM.).

As to `CN(C)c1nc(N[C@H]2CC[C@@H](CNCc3c[nH]nc3-c3ccc(C(F)(F)F)cc3)CC2)nc2c1CCCC2` [compound 1377], the class was 2 (Class 2: The value of percent of control at 10^−7 M was from 40% to 60% or the value of IC′50 was from 50 nM to 200 nM.).

`COc1cc(CNC[C@H]2CC[C@@H](Nc3nc4c(c(N(C)C)n3)CCCC4)CC2)cc(OC)c1OC` [compound 1378]: the class is 2 (Class 2: The value of percent of control at 10^−7 M was from 40% to 60% or the value of IC′50 was from 50 nM to 200 nM.).

`COc1cc(CNC[C@H]2CC[C@@H](Nc3nc4c(c(N(C)C)n3)CCCC4)CC2)cc(OC)c1` [compound 1380]: the class is 2 (Class 2: The value of percent of control at 10^−7 M was from 40% to 60% or the value of IC′50 was from 50 nM to 200 nM.).

In the case of `COc1cc(CNC[C@H]2CC[C@@H](Nc3nc4c(c(N(C)C)n3)CCCC4)CC2)cc(I)c1O` [compound 1381], the class is 1 (Class 1: The value of percent of control at 10^−7 M was less than 40% or the value of IC50 was less than 50 nM.).

For the compound `Cc1cc(CNC[C@H]2CC[C@@H](Nc3nc4c(c(N(C)C)n3)CCCC4)CC2)cc(C)c1O` [compound 1382], the class was 2 (Class 2: The value of percent of control at 10^−7 M was from 40% to 60% or the value of IC′50 was from 50 nM to 200 nM.).

In the case of `COc1ccc(CNC[C@H]2CC[C@@H](Nc3nc4c(c(N(C)C)n3)CCCC4)CC2)cc1` [compound 1383], the class is 3 (Class 3 The value of percent of control at 10^−7 M was more than 60% or the value of IC50 was more than 200 nM.).

With `CN(C)c1nc(N[C@H]2CC[C@@H](CNCc3ccc4c(c3)OCCO4)CC2)nc2c1CCCC2` [compound 1384], the class is on record as 3 (Class 3 The value of percent of control at 10^−7 M was more than 60% or the value of IC50 was more than 200 nM.).

Consider `CN(C)c1nc(N[C@H]2CC[C@@H](CNCc3cccc(Br)c3)CC2)nc2c1CCCC2` [compound 1385], for which the class is reported as 3 (Class 3 The value of percent of control at 10^−7 M was more than 60% or the value of IC50 was more than 200 nM.).
